# Reference: ChEMBL document CHEMBL1149820, “Synthesis, properties and photodynamic inactivation of Escherichia coli by novel cationic fullerene C60 derivatives” (2008)
# Key:
# Format in all cases: functional
# Escherichia coli [1] = experiment: Photoinactivation of Escherichia coli EC7 at 1 uM after 5 mins of irradiation
# Escherichia coli [2] = experiment: Photoinactivation of Escherichia coli EC7 assessed as log reduction of cell survival at 5 uM after 30 mins of irradiation
# Escherichia coli [3] = experiment: Photoinactivation of Escherichia coli EC7 at 1 uM after 20 mins of irradiation
SMILES,Activity (Escherichia coli [1]),Survival (Escherichia coli [2]),Activity (Escherichia coli [3])
Cc1ccc(-c2c3nc(c(-c4ccc([N+](C)(C)C)cc4)c4ccc([nH]4)c(-c4ccc([N+](C)(C)C)cc4)c4nc(c(-c5ccc(C)cc5)c5ccc2[nH]5)C=C4)C=C3)cc1.[I-].[I-],70%,3.2,
C[N+](C)(C)CCCOc1ccc(-c2c3nc(c(-c4ccc(C(F)(F)F)cc4)c4ccc([nH]4)c(-c4ccc(OCCC[N+](C)(C)C)cc4)c4nc(c(-c5ccc(C(F)(F)F)cc5)c5ccc2[nH]5)C=C4)C=C3)cc1.[I-].[I-],,,87%
